Experimental data published in patent US12583884B2, “3beta-(benzyloxy)-17alpha-methyl-pregn-5-en-20-one for use in the treatment of cognitive disorders” (AELIS FARMA, priority 2018, dated 2026).

Columns and labels:
[1] = target: T1, Steroid nuclear receptors GR (Homo sapiens, UniProt P04150); assay: CEREP binding profile: GR
T1 construct: CEREP
Source text: (§1) The CEREP High-throughput profile consists of a broad collection of 80 transmembrane and soluble receptors, ion channels and G-Protein coupled receptors.

[2] = target: T2, Steroid nuclear receptors AR (Homo sapiens, UniProt P10275); assay: Binding: AR
T2 construct: CEREP
Source text: as §1

85 receptors = assay: CEREP High-throughput binding profile (85 receptors), whole panel
Source text: as §1

[3] = target: T3, mutant human CB1 receptor (hCB1p.E1.49G) (Homo sapiens, UniProt P21554, E133G); assay: THC-induced inhibition of cellular respiration in HEK-293-hCB1-Mut; assay type: cell-based; conditions: 100 nM, THC 1 μM
T3 construct: expressed in transfected cells; host or cells: HEK-293 (transient)
Experimental: In a second study (FIG. 5B), HEK-293 cells were transiently transfected either with the wild-type hCB1-expressing plasmid (HEK-293-hCB1-WT) or with the mutant hCB1p.E1.49G-expressing plasmid (HEK-293-hCB1-Mut). In this mutant the glutamate amino acid at position 1.49 was substituted by a glycine. […] After 15 min of incubation, THC (0; 1 μM, dissolved in EtOH, 0.0034%) was added in the culture dishes for 30 minutes.
Cellular respiration was measured in a calibrated oxygraph equipped with a Clark electrode. Oxygen consumption (OC) rate was used to measure cellular respiration.

Ts65Dn mice = assay: Declarative/relational memory (radial maze flexibility test), Down syndrome model; assay type: in vivo, mouse; conditions: 0.6 μg/ml in drinking water
Experimental: The relational memory task was performed using 8-arm radial mazes. The diameter of the central platform was 30 cm and the arms were 55 cm length; 10 cm width and 100 cm height from the floor. Each arm was equipped with a retractable door at its entrance and with a food-pellet delivering system at its end. Each maze was placed in a room containing visual cues on the walls to enable spatial discrimination. There was no intra-maze cue. Each maze was fully automated by videotracking (IMETRONIC Pessac—France). This allowed to automatically control the doors of the arms (opening/closure) and food delivery according to the location of the mouse.
Food-restricted mice (85% of their original body weight all throughout the study) were first submitted to 3 sessions of habituation to the mazes. During each habituation session, the mouse freely explored the maze until it visited each of the 8 arms, or 30 min elapsed. At the beginning of each habituation session, the mouse was placed in the central platform with all the arms closed. […]
The number of correct responses was measured at each session. […]
At the end of the behavioral study, mice were sacrificed, blood and brain samples were collected. 3Bn17MeP was quantified by LC/MS-MS chromatography in both plasma and brain.

[4] = Depressive-like behaviors in the sucrose preference test; assay type: in vivo, mouse
Experimental: Sucrose preference was tested in the home cages of the mice. A sucrose solution containing 2% of sucrose (D(+) saccharose) in tap water was poured in plastic graduated bottles (volume in each bottle, 45 ml). Identical bottles were filled with tap water. All the mice were first habituated to the bottles and to the sucrose solution. One bottle containing water and one bottle containing sucrose were placed in the hopper of each home cage. […] The mice had access to the solutions from the beginning of the dark phase, at the daily peak of food and water consumption (from 7 pm to 8.30 am). The sucrose preference test was performed seven days later. Water and sucrose solutions were presented as described for habituation except that mice had access to the solutions from 12 pm to 10 pm. At each time point, the bottles were weighed, 1 g corresponding to 1 ml. The intake volume was calculated by subtracting the initial bottle weight to the final bottle weight.
15 or 30 mg/kg or of vehicle (corn oil; 5 ml/kg) was studied in the sucrose preference test in 2-month-old male C57B1/6J mice (n=7-8 per group). Rimonabant was dissolved in a vehicle containing dimethylsulfoxide (DMSO, 2%), Tween80 (2%) in injectable NaCl 0.9%. Within the same study, the effect of repeated intraperitoneal injections of rimonabant at 10 mg/kg or of vehicle alone (10 ml/kg) was studied in the sucrose preference test in 2-month-old male C57B1/6J mice (n=8 per group).

[5] = Spontaneous behaviors in the home cage (video analysis); assay type: in vivo, mouse; conditions: 30 mg/kg per os; 24 hours video analysis
in vivo = conditions: both, Sprague-Dawley, rat, 20 mg/kg
Experimental: Blood samples for plasma drug analysis were collected after the last treatment, at 5 and 24 hours post-dose. Quantification was done by LC/MS-MS chromatography.

[6] = target: T4, Vasoactive intestinal peptide PAC1-PACAP (Homo sapiens, UniProt P41586); assay: CEREP binding profile: PAC1
T4 construct: CEREP (contract panel)
Source text: as §1

T3 sequence (P21554 whole entry E133G): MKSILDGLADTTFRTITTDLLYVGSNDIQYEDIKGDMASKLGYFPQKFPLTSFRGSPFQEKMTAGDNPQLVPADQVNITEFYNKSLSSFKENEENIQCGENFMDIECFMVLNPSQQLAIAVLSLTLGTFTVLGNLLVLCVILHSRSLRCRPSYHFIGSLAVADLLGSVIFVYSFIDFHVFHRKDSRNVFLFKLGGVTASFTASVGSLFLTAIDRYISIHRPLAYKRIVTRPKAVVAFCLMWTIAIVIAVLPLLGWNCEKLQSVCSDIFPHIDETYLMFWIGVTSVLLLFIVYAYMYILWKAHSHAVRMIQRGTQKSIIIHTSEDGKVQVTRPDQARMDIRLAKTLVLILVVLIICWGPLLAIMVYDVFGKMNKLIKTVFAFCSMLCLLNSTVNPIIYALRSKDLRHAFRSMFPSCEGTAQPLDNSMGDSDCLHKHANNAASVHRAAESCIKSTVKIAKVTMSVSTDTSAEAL
T1 sequence (P04150 whole entry): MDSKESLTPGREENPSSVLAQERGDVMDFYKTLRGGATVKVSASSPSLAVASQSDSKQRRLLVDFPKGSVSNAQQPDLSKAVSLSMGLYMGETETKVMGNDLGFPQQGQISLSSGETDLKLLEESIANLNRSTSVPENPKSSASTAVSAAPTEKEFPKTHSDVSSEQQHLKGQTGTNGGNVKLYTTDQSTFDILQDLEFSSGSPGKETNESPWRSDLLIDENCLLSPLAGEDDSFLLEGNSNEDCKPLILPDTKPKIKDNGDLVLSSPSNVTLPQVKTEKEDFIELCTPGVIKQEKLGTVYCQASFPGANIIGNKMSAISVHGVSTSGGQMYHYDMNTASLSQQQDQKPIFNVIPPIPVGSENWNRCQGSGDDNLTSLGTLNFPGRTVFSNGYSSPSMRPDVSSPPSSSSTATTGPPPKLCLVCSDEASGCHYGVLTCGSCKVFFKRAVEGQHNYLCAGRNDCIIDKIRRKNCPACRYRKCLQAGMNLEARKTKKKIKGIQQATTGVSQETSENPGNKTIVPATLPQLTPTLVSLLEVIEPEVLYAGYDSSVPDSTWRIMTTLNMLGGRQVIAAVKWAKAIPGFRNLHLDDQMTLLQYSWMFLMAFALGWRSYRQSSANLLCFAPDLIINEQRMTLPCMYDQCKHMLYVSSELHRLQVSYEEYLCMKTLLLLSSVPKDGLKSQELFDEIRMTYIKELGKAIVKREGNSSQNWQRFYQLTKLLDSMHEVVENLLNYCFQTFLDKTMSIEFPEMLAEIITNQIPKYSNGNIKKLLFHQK
T2 sequence (P10275 whole entry): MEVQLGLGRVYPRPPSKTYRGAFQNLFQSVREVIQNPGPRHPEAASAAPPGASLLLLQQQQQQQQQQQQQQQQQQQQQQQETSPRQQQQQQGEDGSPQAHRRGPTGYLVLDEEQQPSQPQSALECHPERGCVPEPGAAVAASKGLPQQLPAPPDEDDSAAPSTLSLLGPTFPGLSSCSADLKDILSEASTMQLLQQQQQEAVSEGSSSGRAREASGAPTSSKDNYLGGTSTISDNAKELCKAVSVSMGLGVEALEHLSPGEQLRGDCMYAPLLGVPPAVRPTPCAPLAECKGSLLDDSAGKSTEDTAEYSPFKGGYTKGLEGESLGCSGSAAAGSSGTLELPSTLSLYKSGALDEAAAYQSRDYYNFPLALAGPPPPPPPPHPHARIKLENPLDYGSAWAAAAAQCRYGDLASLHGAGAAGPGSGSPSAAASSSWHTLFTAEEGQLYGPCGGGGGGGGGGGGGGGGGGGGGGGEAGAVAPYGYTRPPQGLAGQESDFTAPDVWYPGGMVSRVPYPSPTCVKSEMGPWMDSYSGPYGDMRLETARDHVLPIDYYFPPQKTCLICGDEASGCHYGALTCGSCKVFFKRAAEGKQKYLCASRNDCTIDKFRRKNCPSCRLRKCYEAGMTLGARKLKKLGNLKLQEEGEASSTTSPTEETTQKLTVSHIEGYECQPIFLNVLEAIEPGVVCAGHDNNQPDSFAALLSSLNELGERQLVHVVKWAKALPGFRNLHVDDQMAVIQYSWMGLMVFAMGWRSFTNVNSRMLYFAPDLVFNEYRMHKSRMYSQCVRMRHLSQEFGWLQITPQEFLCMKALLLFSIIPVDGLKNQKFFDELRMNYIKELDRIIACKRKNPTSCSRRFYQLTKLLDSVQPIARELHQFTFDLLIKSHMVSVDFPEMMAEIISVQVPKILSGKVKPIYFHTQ
T4 sequence (P41586 21-468): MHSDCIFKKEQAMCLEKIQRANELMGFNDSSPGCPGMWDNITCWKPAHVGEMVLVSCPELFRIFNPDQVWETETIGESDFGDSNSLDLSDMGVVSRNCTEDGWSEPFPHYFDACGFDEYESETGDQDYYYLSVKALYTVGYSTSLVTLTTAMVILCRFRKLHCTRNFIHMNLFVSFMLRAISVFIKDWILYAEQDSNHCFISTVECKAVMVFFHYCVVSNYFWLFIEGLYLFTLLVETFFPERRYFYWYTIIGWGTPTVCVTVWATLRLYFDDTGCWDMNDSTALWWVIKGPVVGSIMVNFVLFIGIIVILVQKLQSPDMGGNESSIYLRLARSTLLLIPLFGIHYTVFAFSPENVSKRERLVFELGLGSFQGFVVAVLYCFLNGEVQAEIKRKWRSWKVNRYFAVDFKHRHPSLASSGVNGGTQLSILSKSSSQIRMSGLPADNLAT

Compound	inhibition at 10 µM [1] [%]	inhibition at 10 µM [2] [%]	Modification of the binding of the 85 receptors (85 receptors; 10 μM)	IC50 (85 receptors; CEREP High-throughput binding profile (85 receptors), read-out: ID50 (the source's name)) [µM]	Effect on THC-induced decrease in cellular respiration [3]	Choice accuracy in the flexibility test (declarative/relational memory) (Ts65Dn mice)	Sucrose intake ([4]; 0.05, 5, 15, 30 mg/kg per os once a day, 28 days)	Effect: increase in depression-related behaviors (repeated administration) ([4]; male mice, highest dose tested 30 mg/kg)	Effects on spontaneous behaviors per se [5]	concentration at 5 h (in vivo) [ng/mL]	concentration at 24 h (in vivo) [ng/mL]	inhibition at 10 µM [6] [%]
CC(=O)[C@@]1(C)CC[C@H]2[C@@H]3CC=C4C[C@@H](OCc5ccccc5)CC[C@]4(C)[C@H]3CC[C@@]21C [3Bn17MeP, 3β-benzyloxy, 17α-methyl-pregn-5-en-20-one]	-2	16	does not modify the binding of any of the 85 receptors	> 10	insensitive	enhanced choice accuracy of Ts65Dn mice that reached the level of WT	had no effect on sucrose intake	No	no detectable effects	4650	974	–
CC(=O)[C@H]1CC[C@H]2[C@@H]3CC=C4C[C@@H](O)CC[C@]4(C)[C@H]3CC[C@]12C [pregnenolone, reference compound]	–	–	–	–	–	–	–	–	–	–	–	-25
